Molecular target: T1, Vitronectin receptor αVβ3 (Homo sapiens, UniProt P05106+P06756)
T1 construct: expressed in transfected cells; host or cells: 512P5 cells (plasma membrane preparation)
Assay: Vitronectin Receptor αVβ3 Binding Assay
Settings: read-out: VnR (IC50μM)

T1 sequence (P06756 31-889 limits assumed): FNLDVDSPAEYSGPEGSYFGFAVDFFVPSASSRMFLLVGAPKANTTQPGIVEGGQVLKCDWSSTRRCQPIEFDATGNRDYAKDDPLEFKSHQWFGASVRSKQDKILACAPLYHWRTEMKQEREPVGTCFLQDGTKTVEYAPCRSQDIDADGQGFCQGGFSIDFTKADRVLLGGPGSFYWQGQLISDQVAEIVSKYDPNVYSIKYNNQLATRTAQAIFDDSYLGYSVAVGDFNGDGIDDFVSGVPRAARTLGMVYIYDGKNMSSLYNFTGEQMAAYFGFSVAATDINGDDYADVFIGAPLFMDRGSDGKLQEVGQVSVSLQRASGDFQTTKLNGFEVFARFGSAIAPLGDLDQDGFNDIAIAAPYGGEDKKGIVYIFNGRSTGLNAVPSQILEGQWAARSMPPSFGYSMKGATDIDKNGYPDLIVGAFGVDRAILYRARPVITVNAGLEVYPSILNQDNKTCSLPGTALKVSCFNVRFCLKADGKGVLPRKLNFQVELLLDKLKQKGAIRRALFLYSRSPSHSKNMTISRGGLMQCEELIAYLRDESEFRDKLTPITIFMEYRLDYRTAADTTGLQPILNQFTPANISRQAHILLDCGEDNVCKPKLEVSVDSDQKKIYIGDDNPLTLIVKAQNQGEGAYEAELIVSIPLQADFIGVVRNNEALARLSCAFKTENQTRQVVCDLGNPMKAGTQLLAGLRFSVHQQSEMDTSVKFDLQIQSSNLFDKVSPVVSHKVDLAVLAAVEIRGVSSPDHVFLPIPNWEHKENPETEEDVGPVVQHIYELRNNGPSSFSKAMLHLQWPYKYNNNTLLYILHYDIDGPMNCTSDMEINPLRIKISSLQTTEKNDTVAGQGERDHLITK
T1 sequence (P06756 891-1048 partner limits assumed): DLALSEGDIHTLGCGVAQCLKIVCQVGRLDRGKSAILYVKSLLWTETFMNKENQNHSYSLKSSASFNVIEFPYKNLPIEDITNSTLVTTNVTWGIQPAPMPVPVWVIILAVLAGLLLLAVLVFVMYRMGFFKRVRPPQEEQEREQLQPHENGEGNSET
T1 sequence (P05106 27-788): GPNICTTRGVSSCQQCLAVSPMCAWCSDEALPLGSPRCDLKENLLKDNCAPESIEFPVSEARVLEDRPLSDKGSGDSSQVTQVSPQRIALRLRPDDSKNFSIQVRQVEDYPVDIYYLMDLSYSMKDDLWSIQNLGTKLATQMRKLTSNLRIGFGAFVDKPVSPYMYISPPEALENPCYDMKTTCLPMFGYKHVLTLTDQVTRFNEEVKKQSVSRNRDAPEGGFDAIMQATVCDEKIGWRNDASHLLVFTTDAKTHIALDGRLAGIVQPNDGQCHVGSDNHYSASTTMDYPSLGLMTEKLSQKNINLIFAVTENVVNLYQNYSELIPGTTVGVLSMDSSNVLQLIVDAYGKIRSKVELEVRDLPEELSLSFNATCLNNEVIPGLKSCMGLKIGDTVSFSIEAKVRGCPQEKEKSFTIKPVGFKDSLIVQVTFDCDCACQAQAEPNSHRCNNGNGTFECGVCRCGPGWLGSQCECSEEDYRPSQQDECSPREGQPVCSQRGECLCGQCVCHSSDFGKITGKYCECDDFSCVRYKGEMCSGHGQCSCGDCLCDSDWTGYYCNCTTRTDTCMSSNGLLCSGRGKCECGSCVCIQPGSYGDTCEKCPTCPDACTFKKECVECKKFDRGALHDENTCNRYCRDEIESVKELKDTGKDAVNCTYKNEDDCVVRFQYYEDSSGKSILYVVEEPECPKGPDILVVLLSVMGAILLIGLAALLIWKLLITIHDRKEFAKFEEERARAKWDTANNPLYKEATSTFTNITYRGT

IC50 [µM] | Structure (SMILES)
> 1 | O=C(CCc1ccccc1)N[C@@H](CNC(=O)c1ccc(OCCNC2=NCCN2)cc1O)C(=O)O [Example 128, (2S)-3-({4-[2-(4,5-dihydro-1H-imidazol-2-ylamino)ethoxy]-2-hydroxybenzoyl}-amino)-2-[(3-phenylpropanoyl)amino]propanoic acid]
0.635 | O=C(CC1CCCCC1)N[C@@H](CNC(=O)c1ccc(OCCNC2=NCCN2)cc1O)C(=O)O [Example 129, (2S)-2-[(2-cyclohexylacetyl)amino]-3-({4-[2-(4,5-dihydro-1H-imidazol-2-ylamino)ethoxy]-2-hydroxybenzoyl}amino)propanoic acid]
> 1 | O=C(/C=C/c1ccccc1)N[C@@H](CNC(=O)c1ccc(OCCNC2=NCCN2)cc1O)C(=O)O [Example 130, (2S)-3-({4-[2-(4,5-dihydro-1H-imidazol-2-ylamino)ethoxy]-2-hydroxybenzoyl}-amino)-2-{[(E)-3-phenylprop-2-enoyl]amino}propanoic acid]
0.405 | O=C(NC[C@H](NC(=O)c1ccccc1Cl)C(=O)O)c1ccc(OCCNC2=NCCN2)cc1O [Example 131, (2S)-2-[(2-chlorobenzoyl)amino]-3-({4-[2-(4,5-dihydro-1H-imidazol-2-ylamino)ethoxy]-2-hydroxybenzoyl}amino)propanoic acid]
0.963 | Cc1ccccc1C(=O)N[C@@H](CNC(=O)c1ccc(OCCNC2=NCCN2)cc1O)C(=O)O [Example 132, (2S)-3-({4-[2-(4,5-dihydro-1H-imidazol-2-ylamino)ethoxy]-2-hydroxybenzoyl}amino)-2-[(2-methylbenzoyl)amino]propanoic acid]
> 1 | COc1ccccc1C(=O)N[C@@H](CNC(=O)c1ccc(OCCNC2=NCCN2)cc1O)C(=O)O [Example 133, (2S)-3-({4-[2-(4,5-dihydro-1H-imidazol-2-ylamino)ethoxy]-2-hydroxybenzoyl}-amino)-2-[(2-methoxybenzoyl)amino]propanoic acid]
> 1 | O=C(N[C@@H](CNC(=O)c1ccc(OCCNC2=NCCN2)cc1O)C(=O)O)c1ccc(Cl)cc1 [Example 134, (2S)-2-[(4-chlorobenzoyl)amino]-3-({4-[2-(4,5-dihydro-1H-imidazol-2-ylamino) -ethoxy]-2-hydroxybenzoyl}amino)propanoic acid]
> 1 | Cc1ccc(C(=O)N[C@@H](CNC(=O)c2ccc(OCCNC3=NCCN3)cc2O)C(=O)O)cc1 [Example 135, (2S)-3-({4-[2-(4,5-dihydro-1H-imidazol-2-ylamino)ethoxy]-2-hydroxybenzoyl}-amino)-2-[(4-methylbenzoyl)amino]propanoic acid]
> 1 | COc1ccc(C(=O)N[C@@H](CNC(=O)c2ccc(OCCNC3=NCCN3)cc2O)C(=O)O)cc1 [Example 136, (2S)-3-({4-[2-(4,5-dihydro-1H-imidazol-2-ylamino)ethoxy]-2-hydroxybenzoyl}-amino)-2-[(4-methoxybenzoyl)amino]propanoic acid]
> 1 | Cc1cc(C(=O)N[C@@H](CNC(=O)c2ccc(OCCNC3=NCCN3)cc2O)C(=O)O)c(C)o1 [Example 137, (2S)-3-({4-[2-(4,5-dihydro-1H-imidazol-2-ylamino)ethoxy]-2-hydroxybenzoyl}-amino)-2-[(2,5-dimethyl-3-furoyl)amino]propanoic acid]
0.361 | O=C(NC[C@H](NC(=O)c1ccccc1Br)C(=O)O)c1ccc(OCCNC2=NCCN2)cc1O [Example 138]
> 1 | O=C(N[C@@H](CNC(=O)c1ccc(OCCNC2=NCCN2)cc1O)C(=O)O)c1ccc(Br)cc1 [Example 139, (2S)-2-[(4-bromobenzoyl)amino]-3-({4-[2-(4,5-dihydro-1H-imidazol-2-ylamino)ethoxy]-2-hydroxybenzoyl}amino)propanoic acid]
0.0978 | Cc1cccc(C(=O)N[C@@H](CNC(=O)c2ccc(OCCNC3=NCCN3)cc2O)C(=O)O)c1C [Example 140, (2S)-3-({4-[2-(4,5-dihydro-1H-imidazol-2-ylamino)ethoxy]-2-hydroxybenzoyl}-amino)-2-[(2,3-dimethylbenzoyl)amino]propanoic acid]
> 1 | O=C(N[C@@H](CNC(=O)c1ccc(OCCNC2=NCCN2)cc1O)C(=O)O)c1cccc(Cl)c1 [Example 141, (2S)-2-[(3-chlorobenzoyl)amino]-3-({4-[2-(4,5-dihydro-1H-imidazol-2-ylamino)-ethoxy]-2-hydroxybenzoyl}amino)propanoic acid]
4.79 | O=C(N[C@@H](CNC(=O)c1ccc(OCCNC2=NCCCCC2)cc1O)C(=O)O)OCc1ccccc1 [Example 143, (2S)-2-{[(benzyloxy)carbonyl]amino}-3-({2-hydroxy-4-[2-(3,4,5,6-tetrahydro-2-azepin-7-ylamino)ethoxy]benzoyl}amino)propanoic acid]
4.28 | Cc1ccccc1NC(=O)N[C@@H](CNC(=O)c1ccc(OCCNC(=N)N)cc1O)C(=O)O [Example 173, (2S)-3-{[4-(2-{[amino(imino)methyl]amino}ethoxy)-2-hydroxybenzoyl]amino}-2-[(2-toluidinocarbonyl)amino]propanoic acid]

More lines, now with the values behind:

Structure (SMILES) | IC50 [µM]
CC(C)(C)COC(=O)N[C@@H](CNC(=O)c1ccc(OCCNC2=NCCCCC2)cc1O)C(=O)O [Example 142, (2S)-3-({2-hydroxy-4-[2-(3,4,5,6-tetrahydro-2H-azepin-7-ylamino)ethoxy]benzoyl}amino)-2-{[(neopentyloxy)carbonyl]amino}propanoic acid] | 1.6
O=C(N[C@@H](CNC(=O)c1ccc(OCCNC2=NCCCCC2)cc1O)C(=O)O)OCC(Cl)(Cl)Cl [Example 153, (2S)-3-({2-hydroxy-4-[2-(3,4,5,6-tetrahydro-2H-azepin-7-ylamino)ethoxy]benzoyl}-amino)-2-{[(2,2,2-trichloroethoxy)carbonyl]amino}propanoic acid] | 2.4
CC(C)(C)COC(=O)N[C@@H](CNC(=O)c1ccc(OCCNC(=N)N)cc1O)C(=O)O [Example 156, (2S)-3-{[4-(2-{[amino(imino)methyl]amino}ethoxy)-2-hydroxy-benzoyl]amino}-2-{[(neopentyloxy)carbonyl]amino}propanoic acid] | 0.25
COC(=O)N[C@@H](CNC(=O)c1ccc(OCCNC(=N)N)cc1O)C(=O)O [Example 158, (2S)-3-{[4-(2-{[amino(imino)methyl]amino)ethoxy)-2-hydroxybenzoyl]amino}-2-[(methoxycarbonyl)amino]propanoic acid] | 4.6
CCOC(=O)N[C@@H](CNC(=O)c1ccc(OCCNC(=N)N)cc1O)C(=O)O [Example 159, (2S)-3-{[4-(2-{[amino(imino)methyl]amino)ethoxy)-2-hydroxybenzoyl]amino}-2-[(ethoxycarbonyl)amino]propanoic acid] | 2
CCCOC(=O)N[C@@H](CNC(=O)c1ccc(OCCNC(=N)N)cc1O)C(=O)O [Example 160, (2S)-3-{[4-(2-{[amino(imino)methyl]amino}ethoxy)-2-hydroxybenzoyl]amino}-2-[(propoxycarbonyl)amino]propanoic acid] | 0.97
CC(C)OC(=O)N[C@@H](CNC(=O)c1ccc(OCCNC(=N)N)cc1O)C(=O)O [Example 161, (2S)-3-{[4-(2-{[amino(imino)methyl]amino}ethoxy)-2-hydroxybenzoyl]amino}-2-[(isopropoxycarbonyl)amino]propanoic acid] | 0.9
C=CCOC(=O)N[C@@H](CNC(=O)c1ccc(OCCNC(=N)N)cc1O)C(=O)O [Example 162] | 1.1
C=CCCOC(=O)N[C@@H](CNC(=O)c1ccc(OCCNC(=N)N)cc1O)C(=O)O [Example 163, (2S)-3-{[4-(2-{[amino(imino)methyl]amino}ethoxy)-2-hydroxybenzoyl]amino}-2-{[(but-3-enyloxy)carbonyl]amino}propanoic acid] | 1.1
CCCCOC(=O)N[C@@H](CNC(=O)c1ccc(OCCNC(=N)N)cc1O)C(=O)O [Example 164, (2S)-3-{[4-(2-{[amino(imino)methyl]amino}ethoxy)-2-hydroxybenzoyl]amino}-2-[(butoxycarbonyl)amino]propanoic acid] | 0.61
N=C(N)NCCOc1ccc(C(=O)NC[C@H](NC(=O)OCC(Cl)(Cl)Cl)C(=O)O)c(O)c1 [Example 165, (2S)-3-{[4-(2-{[amino(imino)methyl]amino}ethoxy)-2-hydroxybenzoyl]amino}-2-{[(2,2,2-trichloroethoxy)carbonyl]amino}propanoic acid] | 0.39
CCCCCCOC(=O)N[C@@H](CNC(=O)c1ccc(OCCNC(=N)N)cc1O)C(=O)O [Example 166, (2S)-3-{[4-(2-{[amino(imino)methyl]amino}ethoxy)-2-hydroxybenzoyl]amino}-2-{[(hexyloxy)carbonyl]amino}propanoic acid] | 0.8
C#CCOC(=O)N[C@@H](CNC(=O)c1ccc(OCCNC(=N)N)cc1O)C(=O)O [Example 167, (2S)-3-{[4-(2-{[amino(imino)methyl]amino}ethoxy)-2-hydroxybenzoyl]amino}-2-{[(prop-2-ynyloxy)carbonyl]amino}propanoic acid] | 2.6
COc1ccccc1NC(=O)N[C@@H](CNC(=O)c1ccc(OCCNC(=N)N)cc1O)C(=O)O [Example 174, (2S)-3-{[4-(2-{[amino(imino)methyl]amino}ethoxy)-2-hydroxybenzoyl]amino}-2-{[(2-methoxyanilino)carbonyl]amino}propanoic acid] | 3.89
N=C(N)NCCOc1ccc(C(=O)NC[C@H](NC(=O)Nc2ccccc2Cl)C(=O)O)c(O)c1 [Example 175, (2S)-3-{[4-(2-{[amino(imino)methyl]amino}ethoxy)-2-hydroxybenzoyl]amino}-2-{[(2-chloroanilino)carbonyl]amino}propanoic acid] | 3.8
N=C(N)NCCOc1ccc(C(=O)NC[C@H](NC(=O)Nc2ccccc2Br)C(=O)O)c(O)c1 [Example 176, (2S)-3-{[4-(2-{[amino(imino)methyl]amino}ethoxy)-2-hydroxybenzoyl]amino}-2-{[(2-bromoanilino)carbonyl]amino}propanoic acid] | 2.14
N=C(N)NCCOc1ccc(C(=O)NC[C@H](NC(=O)Nc2ccccc2-c2ccccc2)C(=O)O)c(O)c1 [Example 177] | 4.87

Source: patent US20030186967A1, “Acylresorcinol derivatives are selective vitronectin receptor inhibitors” (American Home Products Corporation, priority 1998, published 2003)
